According to PMC11298173 (Drug Design, Development and Therapy, 2024):

Key:
[1] = NEF-105 study: budesonide plasma pharmacokinetics; format: in vivo; conditions: human, po
patients with IgAN = conditions: TESTING trial, at 3 months, diminishing over time; cited from earlier work

| SMILES | half-life [1] | Effect on proteinuria vs placebo (patients with IgAN) |
| --- | --- | --- |
| CCCC1O[C@@H]2C[C@H]3[C@@H]4CCC5=CC(=O)C=C[C@]5(C)[C@H]4[C@@H](O)C[C@]3(C)[C@]2(C(=O)CO)O1 (some centres unmarked) [budesonide] | ~5 h |  |
| C[C@H]1C[C@@H]2[C@H]([C@@H](O)C[C@@]3(C)[C@H]2CC[C@]3(O)C(=O)CO)[C@@]2(C)C=CC(=O)C=C12 [methylprednisolone] |  | substantial effect |
